Results published in US20210113540A1, “TREATMENT AGENT AND PHARMACEUTICAL COMPOSITION FOR GLIOMA” (NATIONAL UNIVERSITY CORPORATION HOKKAIDO UNIVERSITY, priority 2018, published 2021).
Like-named read-outs stand apart in the source and are kept apart here. One block for each compound: values may come before it.

Tests used:
SOX2 in GICs (E6) = experiment: SOX2 immunostaining, SOX2/DAPI positive rate in GICs (E6); assay type: cell-based, human; settings: 20 μmol/L OSMI-1, cultured 2 days; control 71±2%
Procedure: (§1) The extranuclear elimination of compound 8-dependent SOX2 is dependent on the extranuclear transport factor, Exportin (also known as CRM1). The cells were cultured for one day in the presence of Compound 8 (10 μM) and a CRM1-specific inhibitor leptomycin B (LMB, 150 nM), and GICs were immunostained with the SOX2 antibody. As a result, the SOX2/DAPI positive rate in GICs (E6) was as follows: Control: 95±2%, supplemented with Compound 8: 7±3%, supplemented with Compound 8+LMB: 87±9%; the SOX2/DAPI positive rate in GICs (E16) was as follows: Control: 72±11%, supplemented with compound 8: 0.5±1%, supplemented with Compound 8+LMB: 81±10%. The addition of LMB suppressed Compound 8-dependent extranuclear elimination of SOX2.
(§2) When UDP-GlcNAc was added after the chemical was added to GIC, reduced SOX2 expression in GICs and the cytotoxic activity of Compound 8 on GICs were neutralized (FIGS. 3 and 4). SOX2 K75A in which lysine 75 involved in the binding of CRM1 and SOX2 was substituted with alanine and SOX2 S248A in which the 0-GlcNAcylation target serine 248 was substituted with alanine were prepared, thereby establishing GICs that constitutively express these SOX2 mutants and wild-type SOX2 (SOX2 wt). After treatment with Compound 8, the localization of SOX2 was examined by immunostaining using an anti-FLAG antibody, and the viability of GICs expressing these mutants was examined by MTT assay (FIG. 5). In the presence of Compound 8, SOX2 K75A was present in the nucleus and partially neutralized the cytotoxic activity of Compound 8. SOX2 S248A was not retained in the nucleus by treatment with Compound 8, and no inhibitory effect on cytotoxic activity was observed. […] The SOX2/DAPI positive rate was as follows: GIC (E6): Control: 0%, SOX2 wt: 36±5%, SOX2 K75A: 63±5%, SOX2 S248A: 18±2%; GIC (E16): Control: 0%, SOX2 wt: 22±4%, SOX2 K75A: 58±6%, SOX2 S248A: 15±3%. Error bar: ±SD. Statistical processing is t-test. *P<0.05, **P<0.01, ***P<0.001. GIC was cultured for 2 days with Compound 8 (10 μmol/L) alone or together with UDP-GlcNAc (1 mmol/L), and immunostaining was performed for SOX2 and NESTIN. As a result, the addition of UDP-GlcNAc suppressed Compound 8-dependent extranuclear elimination of SOX2.
(§3) OSMI-1, which is an O-GlcNAc transferase (OGT)-specific inhibitor, suppresses GIC growth and SOX2 expression. (A) GICs were cultured for 3 days in the presence of various concentrations of OSMI-1, and cell growth was examined using MTT assay (FIG. 6). (B) The results of immunostaining for SOX2 and NESTIN using GICs cultured for 2 days in the presence of 20 μmol/L OSMI-1 and calculating the SOX2 positive rate (SOX2/DAPI) are shown below.

SOX2 in GICs (E16) = experiment: SOX2 immunostaining, SOX2/DAPI positive rate in GICs (E16); assay type: cell-based, human; settings: 20 μmol/L OSMI-1, cultured 2 days; control 65±5%
Procedure: as §1, §2, §3

GICs = experiment: GIC growth in the presence of OSMI-1 (MTT assay); assay type: cell-based, human; settings: cultured 3 days, various concentrations of OSMI-1, FIG. 6
Procedure: as §3

[1] = system: Glioma-initiating cell E6R; experiment: Cell growth test (MTT) on GICR strain E6R; assay type: cell-based; settings: Homo sapiens, 72 h
Procedure: GICR strain: Cell growth test was performed using E6R (Stem Cells. 2016 August; 34(8):2016-25.).
(§4) Cell culture solutions were obtained by mixing a medium prepared by adding various compounds, bFGF (Peprotech, 100-18B) and EGF (Peprotech, 100-15) to DMEM/Ham's F-12 medium (SIGMA, D8062) and a medium prepared by adding FCS (Hyclone, SH30910.03) to DMEM medium (Nacalai tesque, 08458-45) to a concentration of 10% for use.
(§5) Each compound adjusted to a predetermined concentration was dispensed into a 96-well plate (Falcon, 353072) at 80 μL/well, and E6 cells and E6R cells were seeded on the 96-well plate at 1000 cells/80 μL/well. After 3 days, 10 μL of an MTT reagent (DOJINDO, 341-01823) was added, the cells were incubated at 37° C. for 3 hours, the culture solution was removed, and 100 μL of DMSO was added. The absorbance at 570 nm was measured using Bio-Rad iMark (Bio-Rad, 168-1130JA). The growth inhibition rate at each test compound concentration was calculated by the following formula using the absorbance as an index of the viable cell count.
(§6) The growth inhibition rate at each compound concentration was determined, and the 50% growth inhibition concentration GI50 (μmol/L)] was calculated using XLfit. Growth inhibition rate (%)=(Amount of luminescence from wells supplemented with test compound)/(Amount of luminescence from wells supplemented with DMSO)×100
(§7) GIC and GICR strain: Cell growth test was performed using E6, E6R, E16, and E16R (Stem Cells. 2016 August; 34(8): 2016-25.).

[2] = system: Glioma-initiating cell E6; experiment: Cell proliferation test (MTT) on GIC strain E6; assay type: cell-based; settings: Homo sapiens, 72 h, MTT after 3 days
Procedure: as §7, §4, §5, §6

[3] = system: Glioma-initiating cell E16; experiment: Cell proliferation test (MTT) on GIC strain E16; assay type: cell-based; settings: Homo sapiens, 72 h, MTT after 3 days
Procedure: as §7, §4, §5, §6

[4] = system: Glioma-initiating cell E16R; experiment: Cell proliferation test (MTT) on GICR strain E16R; assay type: cell-based; settings: Homo sapiens, 72 h, MTT after 3 days
Procedure: as §7, §4, §5, §6

recombinant human DHODH = target: T1, recombinant human DHODH (Homo sapiens, UniProt Q02127); experiment: DHODH enzyme assay (DCIP quenching); assay type: biochemical; settings: pH 8.0, DCIP absorbance 600 nm, 50 minutes; read-out: DHODH enzyme inhibition IC50
T1 construct: DHODH, 31-395aa, Human, His tag, E. coli, ATGP1615; His tag; purchased ATGen ATGP1615; host or cells: E. coli
Procedure: For DHODH enzyme assay, “Benjamin Bader, Wolfgang Knecht, Markus Fries, and Monika Löffler. Expression, Purification, and Characterization of Histidine-Tagged Rat and Human Flavoenzyme Dihydroorotate Dehydrogenase. Protein Expression and Purification, 1998, 13, 414-422” was referred to.
DHODH activity was evaluated using an enzyme assay system that couples with an assay in a blue-coloring dye 2,6-dichlorophenol indophenol (DCIP, MP BIOMEDICALS, MP150118) quenching assay. Purified recombinant human DHODH (DHODH, 31-395aa, Human, His tag, E. coli, ATGP1615) was purchased from ATGen. […] Enzyme activity was assessed by measuring the decrease in DCIP absorbance (600 nm) for 50 minutes using an Envision plate-reading spectrophotometer (PerkinElmer Co., Ltd.). […]
Enzyme reaction inhibition rate (%)=(Amount of luminescence from wells supplemented with test compound)/(Amount of luminescence from wells supplemented with DMSO)×100

[5] = MTT after 3 days, read-out: ER6 GI50
[6] = class of ER6 GI50, MTT after 3 days, read-out: Evaluation

T1 sequence (Q02127 31-395): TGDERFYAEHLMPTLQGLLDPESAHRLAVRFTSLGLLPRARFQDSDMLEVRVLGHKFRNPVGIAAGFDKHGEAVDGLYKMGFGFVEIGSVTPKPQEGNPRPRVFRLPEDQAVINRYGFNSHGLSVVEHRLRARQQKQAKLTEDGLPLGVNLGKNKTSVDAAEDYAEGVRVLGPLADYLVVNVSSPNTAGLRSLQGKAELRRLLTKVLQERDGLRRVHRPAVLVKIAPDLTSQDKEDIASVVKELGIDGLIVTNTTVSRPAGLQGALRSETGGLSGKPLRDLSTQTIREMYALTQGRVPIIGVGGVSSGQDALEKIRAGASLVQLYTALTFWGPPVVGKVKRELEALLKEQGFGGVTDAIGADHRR

SMILES: COc1ccccc1[C@@H](NS(=O)(=O)c1ccc2[nH]c(=O)ccc2c1)C(=O)N(Cc1ccco1)Cc1cccs1 [OSMI-1, reference compound]
- SOX2 positive rate (SOX2/DAPI), GIC (E6) (SOX2 in GICs (E6)): 32±4%
- SOX2 positive rate (SOX2/DAPI), GIC (E16) (SOX2 in GICs (E16)): 30±5%
- GIC growth (GICs): suppresses

SMILES: Cn1ccc2cc(Nc3ncc(C4CC4)cc3C(=O)O)cc(C3=CCOCC3)c21 [Compound 15, 5-cyclopropyl-2-((7-(3,6-dihydro-2H-pyran-4-yl)-1-methyl-1H-indole-5-yl)amino)nicotinic acid]
- GI50 [1, 5]: 25.9 nmol/L
- GI50 [1, 6]: < 1000 nmol/L

SMILES: O=C(O)c1cc(C2CC2)ccc1Nc1cccc2c1ccc(=O)n2-c1ccccc1 [Compound 19, 5-cyclopropyl-2-((2-oxo-1-phenyl-1,2-dihydroquinoline-5-yl)amino)benzoic acid]
- GI50 [1, 5]: 5.8 nmol/L
- GI50 [1, 6]: < 1000 nmol/L

The next lines start with the values.

- GI50 ([1]; MTT after 3 days, read-out: GI50 (nmol/L) of Glioma-initiating cell E6R): 655 nmol/L
- GI50 ([1]; MTT after 3 days, read-out: GI50 class of Glioma-initiating cell E6R): < 1000 nmol/L
- GI50 ([2]; read-out: GI50 (nmol/L) of Glioma-initiating cell E6): 100 nmol/L
- GI50 ([2]; read-out: GI50 class of Glioma-initiating cell E6): < 1000 nmol/L
- GI50 ([3]; read-out: GI50 (nmol/L) of Glioma-initiating cell E16): 11800 nmol/L
- GI50 ([3]; read-out: GI50 class of Glioma-initiating cell E16): ≥ 10000 nmol/L
- GI50 ([4]; read-out: GI50 (nmol/L) of Glioma-initiating cell E16R): 1960 nmol/L
- GI50 ([4]; read-out: GI50 class of Glioma-initiating cell E16R): 1000 to 10000 nmol/L
- IC50 (recombinant human DHODH): 0.0286 µM
SMILES: O=C(O)c1cc(C2CC2)cnc1Nc1ccc2c(ccn2Cc2cccc(F)c2)c1 [Compound 21, 5-cyclopropyl-2-((1-(3-fluorobenzyl)-1H-indole-5-yl)amino)nicotinic acid]

- GI50 [1, 5]: 82.6 nmol/L
- GI50 [1, 6]: < 1000 nmol/L
SMILES: O=C(O)c1cc(C2CC2)cnc1Nc1ccc2c(ccn2CC2CCCCC2)c1 [Compound 2, 2-((1-(cyclohexylmethyl)-1H-indole-5-yl)amino)-5-cyclopropylnicotinic acid]
